Results reported in US10815222B2, “Compounds for use in the treatment of kinetoplastid infection” (C.N.C.C.S. S.c.a.r.l. COLLEZIONE NAZIONALE DEI COMPOSTI …, priority 2016, dated 2020).

Tested on: Bloodstream form of Trypanosoma brucei, strain Lister 427
Assay: Trypanosoma brucei growth inhibition assay (CellTiter-Glo, 24 h)
Format: cell-based
Conditions: Trypanosoma brucei; T. Brucei Growth Inibition Assay, class symbols; read-out: T. Brucei GI EC50
Method: Bloodstream form of Trypanosoma brucei, strain Lister 427 (provided by Prof. Miguel Navarro, Instituto de Parasitologia y Biomedicina “Lopez-Neyra” Avda. Conocimiento S/N Parque Tecnologico Ciencias de la Salud—Spain; ref. Navarro M. and Cross G. A. M. Molecular and Cellular Biology, 1996, Vol. 16, No. 7, pp. 3615-3625) were grown in IMDM Iscove's Modified Dulbecco's Medium (SIGMA #17633) supplemented with: 3.024 g/l sodium bicarbonate, hypoxanthine 1 mM, thymidine 0.16 mM, bathocuprione sulfonic acid 0.05 mM, cysteine 1.5 mM, ß-mercaptoethanol […] and 10% foetal bovine serum (heat-inactivated at 56° C. for 30 min). Parasites were grown at 37° C. in flasks with vented caps in a 5% CO2 incubator to a maximum cell density of about 2×10^6/ml and diluted every two-three days.
The compounds of the invention were dissolved in DMSO and transferred to assay plates by acoustic droplet ejection (ATS-100, EDC Biosystems, USA) in order to obtain an appropriate concentration and to keep the concentration of DMSO below or equal to 0.25% in the final assay volume of 30 μL. 1500 parasites resuspended in 30 μL of culture medium were then transferred to each well of a 384-well plate.
After an incubation period of 24 hours at 37° C., each well is added 15 μl of CellTiter-Glo® Reagent (Promega) and incubated at room temperature. 5-10 min post incubation, the plate is read using a luminometer (ViewLux®). A known inhibitor of the growth of T. brucei was used as the reference positive control.

SMILES | EC50 [nM]
COc1nc2ccccc2cc1-c1cnc(C2CN(CC3CCOC3)CCN2C(=O)Cn2c(=O)ncc3ccccc32)[nH]1 (stereo not shown) | 1010 to 5000
COc1nc2ccccc2cc1-c1cnc(C2CN(CC3CCOC3)CCN2C(=O)Cn2ccnc2-c2ccccc2)[nH]1 (stereo not shown) | 1010 to 5000
COc1nc2ccccc2cc1-c1cnc(C2CN(CC3CCOC3)CCN2C(=O)Cc2ccc(-c3nccnc3C)cc2)[nH]1 (stereo not shown) | 1010 to 5000
COc1nc2ccccc2cc1-c1cnc(C2CNCCN2C(=O)Cn2c(C)nc3ccccc32)[nH]1 (stereo not shown) | 1010 to 5000
COc1nc2ccccc2cc1-c1cnc(C2CN(CC3CCOC3)CCN2C(=O)Cc2c[nH]c3ccncc23)[nH]1 (stereo not shown) | 1010 to 5000
COc1nc2ccccc2cc1-c1cnc(C2CN(CC3CCOC3)CCN2C(=O)Cc2nc(-c3ccccc3)oc2C)[nH]1 (stereo not shown) | 1010 to 5000
Cc1[nH]c2ccc(F)cc2c1CC(=O)N1CCN(CC2CCOC2)CC1c1ncc(-c2ccc(-n3cccn3)cc2)[nH]1 (stereo not shown) | 1010 to 5000
COc1nc2ccccc2cc1-c1cnc(C2CS(=O)(=O)CCN2C(=O)Cn2c(C)nc3ccccc32)[nH]1 (stereo not shown) | 1010 to 5000
COc1nc2ccccc2cc1-c1cnc(C2COCCN2C(=O)Cn2c(C)nc3ccccc32)[nH]1 (stereo not shown) | 1010 to 5000
COc1nc2ccccc2cc1-c1cnc(C2CN(C3CCS(=O)(=O)CC3)CCN2C(=O)Cc2c(C)[nH]c3ccc(F)cc23)[nH]1 (stereo not shown) | 100 to 500
COc1nc2ccccc2cc1-c1cnc(C2CN(CC3CCCC3)CCN2C(=O)Cc2c(C)[nH]c3ccc(F)cc23)[nH]1 (stereo not shown) | 100 to 500
COc1nc2ccccc2cc1-c1cnc(C2CN(Cc3ccccc3)CCN2C(=O)Cc2c(C)[nH]c3ccc(F)cc23)[nH]1 (stereo not shown) | 100 to 500
COc1nc2ccccc2cc1-c1cnc(C2CN(C3CCC3)CCN2C(=O)Cc2c(C)[nH]c3ccc(F)cc23)[nH]1 (stereo not shown) | 100 to 500
COc1nc2ccccc2cc1-c1cnc([C@@H]2CN(CC3CCOC3)CCN2C(=O)Cn2cc(C(F)(F)F)nc2C)[nH]1 (stereo partly shown) | 1010 to 5000
COc1nc2ccccc2cc1-c1cnc([C@@H]2CN(CC3CCOC3)CCN2C(=O)C(C)(C)n2c(C(F)(F)F)nc3ccccc32)[nH]1 (stereo partly shown) | 1010 to 5000
COc1nc2ccccc2cc1-c1cnc([C@@H]2CN(CC3CCOC3)CCN2C(=O)Cn2c(C(F)(F)F)nc3ncccc32)[nH]1 (stereo partly shown) | 1010 to 5000
COc1nc2ccccc2cc1-c1cnc([C@@H]2CN(CC3CCOC3)CCN2C(=O)Cn2c(C)nc3cc(C(F)(F)F)ccc32)[nH]1 (stereo partly shown) | 100 to 500
COc1nc2ccccc2cc1-c1cnc([C@@H]2CN(CC3CCOC3)CCN2C(=O)Cn2c(CC(F)(F)F)nc3ccccc32)[nH]1 (stereo partly shown) | 100 to 500
COc1nc2ccccc2cc1-c1cnc(C2CN(CC3CCOC3)CCN2C(=O)Cn2nnc3ccccc32)[nH]1 (stereo not shown) | 510 to 1000
COc1nc2ccccc2cc1-c1cnc(C2COCCN2C(=O)Cn2nnc3ccccc32)[nH]1 (stereo not shown) | 1010 to 5000
COc1nc2ccccc2cc1-c1cnc(C2CN(CC3CCOC3)CCN2C(=O)Cn2nc(C)c3ccccc3c2=O)[nH]1 (stereo not shown) | 510 to 1000
COc1nc2ccccc2cc1-c1cnc(C2CN(CC3CCOC3)CCN2C(=O)CN2C(=O)c3ccccc3C2=O)[nH]1 (stereo not shown) | 510 to 1000
COc1nc2ccccc2cc1-c1cnc(C2CS(=O)(=O)CCN2C(=O)Cn2nc(C)c3ccccc3c2=O)[nH]1 (stereo not shown) | 1010 to 5000
COc1nc2ccccc2cc1-c1cnc(C2COCCN2C(=O)Cn2nc(C)c3ccccc3c2=O)[nH]1 (stereo not shown) | 1010 to 5000
COc1nc2ccccc2cc1-c1cnc([C@@H]2CN(CC3CCOC3)CCN2C(=O)Cn2c(C3CCC3)nc3ccccc32)[nH]1 (stereo partly shown) | 100 to 500
COc1nc2ccccc2cc1-c1cnc(C2CN(CC3CCOC3)CCN2C(=O)Cn2c(C3CC3)nc3ccccc32)[nH]1 (stereo not shown) | 100 to 500
COc1nc2ccccc2cc1-c1cnc(C2CN(CC3CCOC3)CCN2C(=O)Cn2nc3ccccc3n2)[nH]1 (stereo not shown) | 1010 to 5000
COc1nc2ccccc2cc1-c1cnc(C2CN(CC3CCOC3)CCN2C(=O)Cn2c(C)nc3cc(F)ccc32)[nH]1 (stereo not shown) | 100 to 500

SMILES | EC50 [nM]
COc1nc2ccccc2cc1-c1cnc(C2CN(C3CCN(C)CC3)CCN2C(=O)Cc2c(C)[nH]c3ccc(F)cc23)[nH]1 (stereo not shown) | 510 to 1000
COc1nc2ccccc2cc1-c1cnc(C2CN(Cc3cn(C)nn3)CCN2C(=O)Cc2c(C)[nH]c3ccc(F)cc23)[nH]1 (stereo not shown) | 100 to 500
COc1nc2ccccc2cc1-c1cnc(C2CN(Cc3cccnc3)CCN2C(=O)Cc2c(C)[nH]c3ccc(F)cc23)[nH]1 (stereo not shown) | 100 to 500
COc1nc2ccccc2cc1-c1cnc(C2CN(Cc3cocn3)CCN2C(=O)Cc2c(C)[nH]c3ccc(F)cc23)[nH]1 (stereo not shown) | 100 to 500
COc1nc2ccccc2cc1-c1cnc(C2CN(C(=O)C3CCN(C)CC3)CCN2C(=O)Cc2c(C)[nH]c3ccc(F)cc23)[nH]1 (stereo not shown) | 1010 to 5000
COc1nc2ccccc2cc1-c1cnc(C2COCCN2C(=O)Cc2c(C)[nH]c3ccc(F)cc23)[nH]1 (stereo not shown) | 510 to 1000
Cc1[nH]c2ccc(F)cc2c1CC(=O)N1CCS(=O)(=O)CC1c1ncc(-c2ccc3ccccc3c2)[nH]1 (stereo not shown) | 100 to 500
COc1nc2ccccc2cc1-c1cnc(C2CN(C(=O)c3cnn(C(C)C)c3)CCN2C(=O)Cc2c(C)[nH]c3ccc(F)cc23)[nH]1 (stereo not shown) | 1010 to 5000
COc1ncc(CN2CCN(C(=O)Cc3c(C)[nH]c4ccc(F)cc34)C(c3ncc(-c4cc5ccccc5nc4OC)[nH]3)C2)cn1 (stereo not shown) | 100 to 500
COc1nc2ccccc2cc1-c1cnc(C2CN(Cc3ccoc3)CCN2C(=O)Cc2c(C)[nH]c3ccc(F)cc23)[nH]1 (stereo not shown) | 100 to 500
COc1nc2ccccc2cc1-c1cnc(C2CN(CC(C)C)CCN2C(=O)Cc2c(C)[nH]c3ccc(F)cc23)[nH]1 (stereo not shown) | 100 to 500
COc1nc2ccccc2cc1-c1cnc(C2CN(CC3CCOC3)CCN2C(=O)Cn2c(C)nc3cc(F)c(F)cc32)[nH]1 (stereo not shown) | 100 to 500
COc1nc2ccccc2cc1-c1cnc(C2CN(CC3CCOC3)CCN2C(=O)Cn2c(C)nc3ccc(F)cc32)[nH]1 (stereo not shown) | 100 to 500
COc1nc2ccccc2cc1-c1cnc(C2CN(CC3CCOC3)CCN2C(=O)Cc2cnc3ccccn23)[nH]1 (stereo not shown) | 1010 to 5000
COc1nc2ccccc2cc1-c1cnc(C2CN(Cc3cc[n+]([O-])cc3)CCN2C(=O)Cc2c(C)[nH]c3ccc(F)cc23)[nH]1 (stereo not shown) | 1010 to 5000
CCC(=O)CCCN1CCN(C(=O)Cc2ccccc2)C(c2ncc(-c3ccc4ccccc4c3)[nH]2)C1 (stereo not shown) | 1010 to 5000
CCC(=O)CCCN1CCN(C(=O)Cn2ccnn2)C(c2ncc(-c3ccc4ccccc4c3)[nH]2)C1 (stereo not shown) | 1010 to 5000
COc1nc2ccccc2cc1-c1cnc(C2CN(CC3CCOC3)CCN2C(=O)c2c(-c3ccccc3)noc2C)[nH]1 (stereo not shown) | 1010 to 5000
COc1nc2ccccc2cc1-c1cnc(C2CN(CC3CCOC3)CCN2C(=O)c2ccnc3ccccc23)[nH]1 (stereo not shown) | 1010 to 5000
COc1nc2ccccc2cc1-c1cnc(C2CN(CC3CCOC3)CCN2C(=O)c2sc(-c3cnccn3)nc2C)[nH]1 (stereo not shown) | 1010 to 5000
COc1nc2ccccc2cc1-c1cnc(C2CN(CC3CCOC3)CCN2C(=O)c2cnc3ccccc3c2)[nH]1 (stereo not shown) | 1010 to 5000
COc1nc2ccccc2cc1-c1cnc(C2CN(CC3CCOC3)CCN2C(=O)c2ccc3ncccc3c2)[nH]1 (stereo not shown) | 1010 to 5000
COc1nc2ccccc2cc1-c1cnc([C@@H]2CN(Cc3cnn(C)c3)CCN2C(=O)Cn2c(C(F)(F)F)nc3ccccc32)[nH]1 | 100 to 500
COc1nc2ccccc2cc1-c1cnc([C@@H]2CN(Cc3ccccc3F)CCN2C(=O)Cn2c(C(F)(F)F)nc3ccccc32)[nH]1 | 100 to 500
COc1nc2ccccc2cc1-c1cnc(C2CN(C(=O)OCc3ccccc3)CCN2C(=O)Cn2c(C)nc3ccccc32)[nH]1 (stereo not shown) | 1010 to 5000
COc1nc2ccccc2cc1-c1cnc(C2CN(C(=O)OCc3ccccc3)CCN2C(=O)Cc2c(C)[nH]c3ccc(F)cc23)[nH]1 (stereo not shown) | 1010 to 5000
COc1nc2ccccc2cc1-c1cnc(C2CN(CC3CCOC3)CCN2C(=O)c2nccc3ccccc23)[nH]1 (stereo not shown) | 1010 to 5000
